The text below walks through data of PubChem BioAssay AID1919008 (Molecular Pharmacology Branch, DTP, NCI, 2023).

The test concerns DMS-114 complex spheroids with HUVEC/MSC, growth % test/control. Description: Anticancer human tumor DMS-114 cell line growth inhibition [AhR].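 As to all read-outs here: spheroids exposed to agents for 7 days before readout.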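 As to viability, T/C: 100% = DMSO vehicle control wells.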 The following applies: for viability, T/C: stronger effect = lower value. In short, it runs like this: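 Complex tumor spheroids co-cultured with HUVEC and human MSC stroma; AhR antagonists tested in combination with standard-of-care and investigational agents. Top concentration at or near clinical Cmax (else 10 microM), half-log dilutions; growth expressed as percent test/control.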

The mark [1] stands for this setting: curve of first compound, second compound 0.1 µM.
Where [2] appears, read: curve of first compound, second compound 0.316 µM.
Setting [3] is: curve of first compound, second compound 1 µM.
Where [4] appears, read: curve of first compound, second compound 3.16 µM.
The mark [5] stands for this setting: curve of first compound, second compound 10 µM.
The mark [6] stands for this setting: second compound 0.1 µM, first compound 0.00949 µM.
The mark [7] stands for this setting: second compound 0.1 µM, first compound 0.03 µM.
The mark [8] stands for this setting: second compound 0.1 µM, first compound 0.0949 µM.
The mark [9] stands for this setting: second compound 0.1 µM, first compound 0.3 µM.
[10] abbreviates: second compound 0.316 µM, first compound 0.00949 µM.
Where [11] appears, read: second compound 0.316 µM, first compound 0.03 µM.
Where [12] appears, read: second compound 0.316 µM, first compound 0.0949 µM.
Setting [13] is: second compound 0.316 µM, first compound 0.3 µM.
The mark [14] stands for this setting: second compound 1 µM, first compound 0.00949 µM.
Setting [15] is: second compound 1 µM, first compound 0.03 µM.
Where [16] appears, read: second compound 1 µM, first compound 0.0949 µM.
[17] abbreviates: second compound 1 µM, first compound 0.3 µM.
Setting [18] is: second compound 3.16 µM, first compound 0.00949 µM.
Where [19] appears, read: second compound 3.16 µM, first compound 0.03 µM.
The mark [20] stands for this setting: second compound 3.16 µM, first compound 0.0949 µM.
Setting [21] is: second compound 3.16 µM, first compound 0.3 µM.
The mark [22] stands for this setting: second compound 10 µM, first compound 0.00949 µM.
Setting [23] is: second compound 10 µM, first compound 0.03 µM.
The mark [24] stands for this setting: second compound 10 µM, first compound 0.0949 µM.
The mark [25] stands for this setting: second compound 10 µM, first compound 0.3 µM.

Usually IC50 stands for the concentration needed to halve the response being measured. In general, viability, T/C refers to the ratio of treated to control.

“And” between values parts separate entries of the source, which are not always exact repeats. Equal entries are not always repeated.

As to `Nc1ncn(C2CC(O)C(CO)S2)c(=O)n1` (stereo unspecified) + Cc1cncc(-c2nc(NCCc3c[nH]c4ccccc34)c3ncn(C(C)C)c3n2)c1, the IC50 came out at 222 nM under setting [1]; 219 nM under setting [2]; 294 nM under setting [3]; 293 nM under setting [4]; 43.8 nM under setting [5]. Further, the viability, T/C was 101% (second compound 0.1 µM, first compound 0.000949 µM); 110% (second compound 0.1 µM, first compound 0.003 µM); 80.4% under setting [6]; 93.2% under setting [7]; 57.6% under setting [8]; 46.8% under setting [9]. The viability, T/C reads like this: (second compound 0.316 µM, first compound 0.000949 µM) 86.7%; (second compound 0.316 µM, first compound 0.003 µM) 97.1%; under setting [10], 92.2%; under setting [11], 84%; under setting [12], 59.2%; under setting [13], 46.5%. Moreover, the viability, T/C reads like this: (second compound 1 µM, first compound 0.000949 µM) 87.7%; (second compound 1 µM, first compound 0.003 µM) 95.7%; under setting [14], 99.5%; under setting [15], 80.1%; under setting [16], 73%; under setting [17], 49.3%. In addition, the viability, T/C reads like this: (second compound 3.16 µM, first compound 0.000949 µM) 102%; (second compound 3.16 µM, first compound 0.003 µM) 98.6%; under setting [18], 93.2%; under setting [19], 94.5%; under setting [20], 58.7%; under setting [21], 49.5%. In addition, the viability, T/C (second compound 10 µM, first compound 0.000949 µM) was 57%; the viability, T/C (second compound 10 µM, first compound 0.003 µM) was 51.4%; the viability, T/C under setting [22] was 55.5%; the viability, T/C under setting [23] was 54.7%; the viability, T/C under setting [24] is 43.7%; the viability, T/C under setting [25] is 37.7%.
In the case of `COc1ccc([C@@H](O)c2cc(-c3ncnc4cc(N5CCOCC5)ccc34)c(F)cc2Cl)nn1`, the viability, T/C was 104% and 102% and 101% (compound 0.0316 µM); 107% and 101% and 103% (compound 0.1 µM); 96.9% and 107% and 112% (compound 0.316 µM); 97.4% and 114% and 94.8% (compound 1 µM); 102% and 110% and 95.2% (compound 3.16 µM); 56% and 96.2% and 56.6% (compound 10 µM). The IC50 (curve of compound) was > 10000 nM.
`CC1(C)CCC(CN2CCN(c3ccc(C(=O)NS(=O)(=O)c4ccc(NCC5CCOCC5)c([N+](=O)[O-])c4)c(Oc4cnc5[nH]ccc5c4)c3)CC2)=C(c2ccc(Cl)cc2)C1` + Cc1cncc(-c2nc(NCCc3c[nH]c4ccccc34)c3ncn(C(C)C)c3n2)c1: the IC50 by setting is: under setting [1], > 10000 nM; under setting [2], > 10000 nM; under setting [3], > 10000 nM; under setting [4], > 10000 nM; under setting [5], 6390 nM. The viability, T/C is, setting by setting: (second compound 0.1 µM, first compound 0.0316 µM) 91.9%; (second compound 0.1 µM, first compound 0.1 µM) 92.7%; (second compound 0.1 µM, first compound 0.316 µM) 101%; (second compound 0.1 µM, first compound 1 µM) 106%; (second compound 0.1 µM, first compound 3.16 µM) 94.9%; (second compound 0.1 µM, first compound 10 µM) 110%. In addition, the viability, T/C (second compound 0.316 µM, first compound 0.0316 µM) was 91.5%; the viability, T/C (second compound 0.316 µM, first compound 0.1 µM) was 95.7%; the viability, T/C (second compound 0.316 µM, first compound 0.316 µM) is 95.5%; the viability, T/C (second compound 0.316 µM, first compound 1 µM) was 107%; the viability, T/C (second compound 0.316 µM, first compound 3.16 µM) was 102%; the viability, T/C (second compound 0.316 µM, first compound 10 µM) is 98.9%. Moreover, the viability, T/C runs as follows: (second compound 1 µM, first compound 0.0316 µM) 102%; (second compound 1 µM, first compound 0.1 µM) 102%; (second compound 1 µM, first compound 0.316 µM) 108%; (second compound 1 µM, first compound 1 µM) 97.6%; (second compound 1 µM, first compound 3.16 µM) 110%; (second compound 1 µM, first compound 10 µM) 101%. Besides, the viability, T/C is, setting by setting: (second compound 3.16 µM, first compound 0.0316 µM) 96.8%; (second compound 3.16 µM, first compound 0.1 µM) 86.8%; (second compound 3.16 µM, first compound 0.316 µM) 93.8%; (second compound 3.16 µM, first compound 1 µM) 103%; (second compound 3.16 µM, first compound 3.16 µM) 96.3%; (second compound 3.16 µM, first compound 10 µM) 84.7%. The viability, T/C runs as follows: (second compound 10 µM, first compound 0.0316 µM) 50.9%; (second compound 10 µM, first compound 0.1 µM) 60.2%; (second compound 10 µM, first compound 0.316 µM) 58.3%; (second compound 10 µM, first compound 1 µM) 47.8%; (second compound 10 µM, first compound 3.16 µM) 45%; (second compound 10 µM, first compound 10 µM) 53.7%.
As for `CC(C)CC(NC(=O)C(Cc1ccccc1)NC(=O)c1cnccn1)B(O)O` (stereo unspecified), the viability, T/C reads like this: (compound 0.000949 µM) 98.7% and 95% and 101%; (compound 0.003 µM) 109% and 105% and 66.2%; (compound 0.00949 µM) 1.7% and 11.6% and 1.54%; (compound 0.03 µM) 0.16% and 0.44% and 0.39%; (compound 0.0949 µM) 0.13% and 0.38% and 0.33%; (compound 0.3 µM) 0.21% and 0.32% and 0.4%. The IC50 (curve of compound) was 5.51 nM and 5.76 nM and 4 nM.
Turning to `NS(=O)(=O)OCC1CC(n2ccc3c(NC4CCc5ccccc54)ncnc32)CC1O` (stereo unspecified), the viability, T/C is 56% and 124% and 59.6% (compound 0.0316 µM); 31.8% and 84.4% and 33.5% (compound 0.1 µM); 17.6% and 31.9% and 17.2% (compound 0.316 µM); 6.55% and 22.7% and 10.3% (compound 1 µM); 4.52% and 19.9% and 8.23% (compound 3.16 µM); 4.43% and 14.3% and 5.53% (compound 10 µM). Further, the IC50 (curve of compound) was 42.3 nM and 215 nM and 48 nM.
With `CCN(c1cc(-c2ccc(CN3CCOCC3)cc2)cc(C(=O)NCc2c(C)cc(C)[nH]c2=O)c1C)C1CCOCC1` + Cc1ccccc1N=Nc1ccc(NC(=O)c2ccnn2C)c(C)c1, the IC50 is > 3000 nM under setting [1]; > 3000 nM under setting [2]; > 3000 nM under setting [3]; > 3000 nM under setting [4]; > 3000 nM under setting [5]. Moreover, the viability, T/C reads like this: under setting [6], 97.5%; under setting [7], 105%; under setting [8], 111%; under setting [9], 114%; (second compound 0.1 µM, first compound 0.949 µM) 101%; (second compound 0.1 µM, first compound 3 µM) 102%. The viability, T/C by setting is: under setting [10], 105%; under setting [11], 101%; under setting [12], 104%; under setting [13], 113%; (second compound 0.316 µM, first compound 0.949 µM) 108%; (second compound 0.316 µM, first compound 3 µM) 100%. For the same molecule, the viability, T/C under setting [14] was 108%; the viability, T/C under setting [15] is 101%; the viability, T/C under setting [16] was 110%; the viability, T/C under setting [17] is 110%; the viability, T/C (second compound 1 µM, first compound 0.949 µM) is 112%; the viability, T/C (second compound 1 µM, first compound 3 µM) was 98.8%. The viability, T/C reads like this: under setting [18], 108%; under setting [19], 104%; under setting [20], 110%; under setting [21], 102%; (second compound 3.16 µM, first compound 0.949 µM) 107%; (second compound 3.16 µM, first compound 3 µM) 105%. The viability, T/C by setting is: under setting [22], 106%; under setting [23], 104%; under setting [24], 102%; under setting [25], 108%; (second compound 10 µM, first compound 0.949 µM) 103%; (second compound 10 µM, first compound 3 µM) 102%.
